The results in this text go back to paper PMC10201506 (Signal Transduction and Targeted Therapy, 2023).

Test [1] has as its system SARS-CoV-2 Omicron BA.1 variant. The experiment in a line: microbe, parasite or virus in culture. The test is classed as cell-based. The following applies: Severe acute respiratory syndrome coronavirus 2, Vero C1008, 24 h, read-out: EC50 Omicron BA.1 variant replication.
Test [2] has as its system SARS-CoV-2 Delta variant. Put plainly: microbe, parasite or virus in culture. As to conditions: Severe acute respiratory syndrome coronavirus 2, Vero C1008, 24 h, read-out: EC50 Delta variant replication. The test is classed as cell-based.
Test [3] has as its system SARS-CoV-2 delta variant. Also noted: species or system K18-hACE2 mice. The following applies: mouse, in vivo.

For the compound `O=C(c1cc(=O)[nH]c2ccccc12)N1CCN(c2ccc(Cl)c(Cl)c2)CC1CN1CCOCC1` (centres unmarked) [JZD-07, 4-(4-(3,4-Dichlorophenyl)-2-(morpholinomethyl)piperazine-1-carbonyl)quinolin-2(1H)-one], in test [1], the EC50 came out at 6.03 µM. In addition, in the test on SARS-CoV-2 Delta variant [2], the EC50 was 7.24 µM. Besides, in the test on SARS-CoV-2 delta variant [3], the “immunohistochemistry staining of viral nucleocapsid protein in lungs” value is recorded as “suppressed viral titer in mice lungs”, the “reduction of viral copy loads of the lung vs vehicle” value was about 1.0 log and the “reduction of viral titers of the lung vs vehicle” value was 2.0 log.
